According to patent US7189758B2, “Glucocorticoid mimetics, methods of making them, pharmaceutical formulations, and uses thereof” (Boehringer Ingelheim Pharmaceuticals, Inc., priority 2002, dated 2007):

molecular target: T1, human glucocorticoid receptor (GR) complex (Homo sapiens, UniProt P04150); test: Glucocorticoid receptor competitive binding assay (fluorescence polarization, TAMRA-labeled dexamethasone probe); conditions: result in words only; IC50 values not given
T1 construct: made in house; host or cells: insect cells (baculovirus expression), used as crude lysate
T1 sequence (P04150 1-777): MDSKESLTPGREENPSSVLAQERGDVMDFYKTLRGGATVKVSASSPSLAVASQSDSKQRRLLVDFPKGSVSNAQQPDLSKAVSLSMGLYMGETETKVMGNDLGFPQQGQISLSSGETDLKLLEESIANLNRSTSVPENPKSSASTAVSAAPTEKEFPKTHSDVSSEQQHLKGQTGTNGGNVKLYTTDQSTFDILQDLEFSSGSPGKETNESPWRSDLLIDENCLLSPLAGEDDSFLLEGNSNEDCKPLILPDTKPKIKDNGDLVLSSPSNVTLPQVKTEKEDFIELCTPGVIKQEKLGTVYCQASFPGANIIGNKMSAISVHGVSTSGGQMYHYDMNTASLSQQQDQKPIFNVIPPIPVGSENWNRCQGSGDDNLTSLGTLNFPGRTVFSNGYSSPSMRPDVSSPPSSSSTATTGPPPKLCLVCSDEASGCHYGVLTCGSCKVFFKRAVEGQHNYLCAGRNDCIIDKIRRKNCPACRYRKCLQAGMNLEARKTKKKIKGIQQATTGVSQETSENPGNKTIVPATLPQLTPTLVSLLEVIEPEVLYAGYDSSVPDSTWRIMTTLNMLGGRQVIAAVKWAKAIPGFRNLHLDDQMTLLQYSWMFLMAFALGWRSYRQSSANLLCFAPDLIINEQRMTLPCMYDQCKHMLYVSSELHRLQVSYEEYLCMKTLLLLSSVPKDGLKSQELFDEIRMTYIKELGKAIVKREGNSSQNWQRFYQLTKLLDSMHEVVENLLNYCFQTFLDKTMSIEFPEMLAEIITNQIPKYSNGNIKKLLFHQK
Protocol: Compounds of the invention were evaluated for binding to the steroid receptor by a fluorescence polarization competitive binding assay.
A. Glucocorticoid Receptor Competitive Binding Assay
Step 1. Characterization of the Fluorescent Probe
The wavelengths for maximum excitation and emission of the fluorescent probe should first be measured. An example of such a probe is rhodamine (TAMRA)-labeled dexamethasone.
The affinity of the probe for the steroid receptor was then determined in a titration experiment. The fluorescence polarization value of the probe in assay buffer was measured on an SLM-8100 fluorometer using the excitation and emission maximum values described above. Aliquots of expression vector lysate were added and fluorescence polarization was measured after each addition until no further change in polarization value was observed. Non-linear least squares regression analysis was used to calculate the dissociation constant of the probe from the polarization values obtained for lysate binding to the probe.
Step 2. Screening for Inhibitors of Probe Binding
This assay uses fluorescence polarization (FP) to quantitate the ability of test compounds to compete with tetramethyl rhodamine (TAMRA)-labeled dexamethasone for binding to a human glucocorticoid receptor (GR) complex prepared from an insect expression system. The assay buffer was: 10 mM TES, 50 mM KCl, 20 mM Na2MoO4.2H2O, 1.5 mM EDTA, 0.04% w/v CHAPS, 10% v/v glycerol, 1 mM dithiothreitol, pH 7.4. Test compounds were dissolved to 1 mM in neat DMSO and then further diluted to 10× assay concentration in assay buffer supplemented with 10% v/v DMSO. Test compounds were serially diluted at 10× assay concentrations in 10% DMSO-containing buffer in 96-well polypropylene plates. Binding reaction mixtures were prepared in 96-well black Dynex microtiter plates by sequential addition of the following assay components to each well: 15 μL of 10× test compound solution, 85 μL of GR-containing baculovirus lysate diluted 1:170 in assay buffer, and 50 μL of 15 nM TAMRA-labeled dexamethasone. Positive controls were reaction mixtures containing no test compound; negative controls (blanks) were reaction mixtures containing 0.7 μM to 2 μM dexamethasone. […] IC50 values were determined by iterative non-linear curve fitting of the FP signal data to a 4-parameter logistic equation.

| Compound | activity in the GR binding assay |
| --- | --- |
| COc1ccc(F)cc1C(C)(C)CC(O)(Cc1ccccc1)C(=O)Nc1ccc2c(c1)COC2=O (stereo not drawn) [2-Benzyl-4-(5-fluoro-2-methoxyphenyl)-2-hydroxy-4-methylpentanoic acid (1-oxo-1,3-dihydroisobenzofuran-5-yl)amide] | potent activity |
| CC(C)(CC(O)(CC1CCCCC1)C(=O)Nc1ccc2c(c1)COC2=O)c1cc(F)ccc1O (stereo not drawn) [2-Cyclohexylmethyl-4-(5-fluoro-2-hydroxyphenyl)-2-hydroxy-4-methylpentanoic acid (1-oxo-1,3-dihydroisobenzofuran-5-yl)amide] | potent activity |
| COc1ccc(F)cc1C(C)(C)CC(O)(Cc1ccccc1Cl)C(=O)Nc1ccc2c(c1)COC2=O (stereo not drawn) [2-(2-Chlorobenzyl)-4-(5-fluoro-2-methoxyphenyl)-2-hydroxy-4-methylpentanoic acid (1-oxo-1,3-dihydroisobenzofuran-5-yl)amide] | potent activity |
| CC(C)(CC(O)(Cc1ccccc1F)C(=O)Nc1ccc2c(c1)COC2=O)c1cc(F)ccc1O (stereo not drawn) [2-(2-Fluorobenzyl)-4-(5-fluoro-2-hydroxyphenyl)-2-hydroxy-4-methylpentanoic acid (1-oxo-1,3-dihydroisobenzofuran-5-yl)amide] | potent activity |
| COc1ccc(F)cc1C(C)(C)CC(O)(Cc1ccccc1F)C(=O)Nc1ccc2c(c1)COC2=O (stereo not drawn) [2-(2-Fluorobenzyl)-4-(5-fluoro-2-methoxyphenyl)-2-hydroxy-4-methylpentanoic acid (1-oxo-1,3-dihydroisobenzofuran-5-yl)amide] | potent activity |
| CC(C)(CC(O)(Cc1ccccc1O)C(=O)Nc1ccc2c(c1)COC2=O)c1cc(F)ccc1O (stereo not drawn) [4-(5-Fluoro-2-hydroxyphenyl)-2-hydroxy-2-(2-hydroxybenzyl)-4-methylpentanoic acid (1-oxo-1,3-dihydroisobenzofuran-5-yl)amide] | potent activity |
| COc1ccc(F)cc1C(C)(C)CC(O)(Cc1ccccc1C)C(=O)Nc1ccc2c(c1)COC2=O (stereo not drawn) [4-(5-Fluoro-2-methoxyphenyl)-2-hydroxy-4-methyl-2-(2-methylbenzyl)pentanoic acid (1-oxo-1,3-dihydroisobenzofuran-5-yl)amide] | potent activity |
| COc1ccc(F)cc1C(C)(C)CC(O)(CC1CCCCC1)C(=O)Nc1ccc2c(=O)onc(C)c2c1 (stereo not drawn) [2-Cyclohexylmethyl-4-(5-fluoro-2-methoxyphenyl)-2-hydroxy-4-methylpentanoic acid (4-methyl-1-oxo-1H-benzo[d][1,2]oxazin-6-yl)amide] | potent activity |
| Cc1noc(=O)c2ccc(NC(=O)C(O)(Cc3ccccc3)CC(C)(C)c3cc(F)ccc3O)cc12 (stereo not drawn) [2-Benzyl-4-(5-fluoro-2-hydroxyphenyl)-2-hydroxy-4-methylpentanoic acid (4-methyl-1-oxo-1H-benzo[d][1,2]oxazin-6-yl)amide] | potent activity |
| CC(C)(CC(O)(Cc1ccc(F)c(F)c1)C(=O)Nc1ccc2c(c1)COC2=O)c1cc(F)ccc1O (stereo not drawn) [2-(3,4-Difluorobenzyl)-4-(5-fluoro-2-hydroxyphenyl)-2-hydroxy-4-methylpentanoic acid (1-oxo-1,3-dihydroisobenzofuran-5-yl)amide] | potent activity |
| COc1ccc(F)cc1C(C)(C)CC(O)(Cc1ccccc1Br)C(=O)Nc1ccc2c(c1)COC2=O (stereo not drawn) [2-(2-Bromobenzyl)-4-(5-fluoro-2-methoxyphenyl)-2-hydroxy-4-methylpentanoic acid (1-oxo-1,3-dihydroisobenzofuran-5-yl)amide] | potent activity |
| Cc1noc(=O)c2ccc(NC(=O)C(O)(CC3CCCCC3)CC(C)(C)c3ccccc3)cc12 (stereo not drawn) [2-Cyclohexylmethyl-2-hydroxy-4-methyl-4-phenylpentanoic acid (4-methyl-1-oxo-1H-benzo[d][1,2]oxazin-6-yl)amide] | potent activity |
